Results taken from PubChem BioAssay (NCI).
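GI50 = concentration required for 50% inhibition of growth. TGI: total growth inhibition.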

Tests used:
Test in all cases: NCI-60 cell line screen, 384-well format
SK-MEL-5 melanoma = system: SK-MEL-5 melanoma
SNB-75 CNS = system: SNB-75 CNS
TK-10 renal = system: TK-10 renal
SF-295 CNS = system: SF-295 CNS
MALME-3M melanoma = system: MALME-3M melanoma
NCI-H460 NSCLC = system: NCI-H460 NSCLC
SF-539 CNS = system: SF-539 CNS
EKVX NSCLC = system: EKVX NSCLC
OVCAR-3 ovarian = system: OVCAR-3 ovarian
KM12 colon = system: KM12 colon
LOX IMVI melanoma = system: LOX IMVI melanoma
UACC-257 melanoma = system: UACC-257 melanoma
A549 NSCLC = system: A549 NSCLC
HOP-92 NSCLC = system: HOP-92 NSCLC
T-47D breast = system: T-47D breast
OVCAR-4 ovarian = system: OVCAR-4 ovarian
NCI-H23 lung = system: NCI-H23 lung
SF-268 CNS = system: SF-268 CNS
HT29 colon = system: HT29 colon
NCI/ADR-RES ovarian = system: NCI/ADR-RES ovarian
SK-MEL-28 melanoma = system: SK-MEL-28 melanoma
NCI-H226 lung = system: NCI-H226 lung
HCT-116 colon = system: HCT-116 colon
UACC-62 melanoma = system: UACC-62 melanoma
786-0 renal = system: 786-0 renal
HCC-2998 colon = system: HCC-2998 colon
NCI-H322M lung = system: NCI-H322M lung
CCRF-CEM leukemia = system: CCRF-CEM leukemia
CAKI-1 renal = system: CAKI-1 renal
NCI-H522 lung = system: NCI-H522 lung
SNB-19 CNS = system: SNB-19 CNS
HS 578T breast = system: HS 578T breast
M14 melanoma = system: M14 melanoma
ACHN renal = system: ACHN renal
IGROV1 ovarian = system: IGROV1 ovarian
HCT-15 colon = system: HCT-15 colon
UO-31 renal = system: UO-31 renal
DU-145 prostate = system: DU-145 prostate
OVCAR-8 ovarian = system: OVCAR-8 ovarian
MDA-MB-468 breast = system: MDA-MB-468 breast
U251 glioblastoma = system: U251 glioblastoma
MDA-MB-435 melanoma = system: MDA-MB-435 melanoma
SK-OV-3 ovarian = system: SK-OV-3 ovarian
HOP-62 NSCLC = system: HOP-62 NSCLC
PC-3 prostate = system: PC-3 prostate
OVCAR-5 ovarian = system: OVCAR-5 ovarian
A498 renal = system: A498 renal
MCF7 breast = system: MCF7 breast
RPMI-8226 leukemia = system: RPMI-8226 leukemia
SN12C renal = system: SN12C renal
BT-549 breast = system: BT-549 breast
MDA-MB-231 breast = system: MDA-MB-231 breast
K-562 leukemia = system: K-562 leukemia
SW-620 colon = system: SW-620 colon

Compound: COc1ccc2c(c1)[C@]1(C[C@H]1c1ccc3c(/C=C/c4ccc(CN5C[C@@H](C)O[C@@H](C)C5)cc4)n[nH]c3c1)C(=O)N2
- GI50 (SK-MEL-5 melanoma): 1.5 µM
- TGI (SK-MEL-5 melanoma): 2.85 µM
- GI50 (SNB-75 CNS): 1.73 µM
- TGI (SNB-75 CNS): 4.27 µM
- GI50 (TK-10 renal): 3.66 µM
- TGI (TK-10 renal): 27.9 µM
- GI50 (SF-295 CNS): 2.74 µM
- TGI (SF-295 CNS): 15.1 µM
- GI50 (MALME-3M melanoma): 1.26 µM
- TGI (MALME-3M melanoma): 2.64 µM
- GI50 (NCI-H460 NSCLC): < 0.01 µM
- TGI (NCI-H460 NSCLC): 2.02 µM
- GI50 (SF-539 CNS): 1.3 µM
- TGI (SF-539 CNS): 2.64 µM
- GI50 (EKVX NSCLC): 3.76 µM
- TGI (EKVX NSCLC): 46.8 µM
- GI50 (OVCAR-3 ovarian): 1.33 µM
- TGI (OVCAR-3 ovarian): 2.89 µM
- GI50 (KM12 colon): 0.0171 µM
- TGI (KM12 colon): 1.68 µM
- GI50 (LOX IMVI melanoma): 1.65 µM
- TGI (LOX IMVI melanoma): 3.64 µM
- GI50 (UACC-257 melanoma): 2.64 µM
- TGI (UACC-257 melanoma): 8.98 µM
- GI50 (A549 NSCLC): 1.19 µM
- TGI (A549 NSCLC): 32.2 µM
- GI50 (HOP-92 NSCLC): 2.19 µM
- TGI (HOP-92 NSCLC): 7.29 µM
- GI50 (T-47D breast): 2.07 µM
- TGI (T-47D breast): 5.25 µM
- GI50 (OVCAR-4 ovarian): 5.15 µM
- TGI (OVCAR-4 ovarian): 28 µM
- GI50 (NCI-H23 lung): 1.67 µM
- TGI (NCI-H23 lung): 4.27 µM
- GI50 (SF-268 CNS): < 0.01 µM
- TGI (SF-268 CNS): 2.81 µM
- GI50 (HT29 colon): 1.82 µM
- TGI (HT29 colon): 3.56 µM
- GI50 (NCI/ADR-RES ovarian): 1.82 µM
- TGI (NCI/ADR-RES ovarian): 7.14 µM
- GI50 (SK-MEL-28 melanoma): 5.22 µM
- TGI (SK-MEL-28 melanoma): 20.9 µM
- GI50 (NCI-H226 lung): 1.25 µM
- TGI (NCI-H226 lung): 14.2 µM
- GI50 (HCT-116 colon): 1.56 µM
- TGI (HCT-116 colon): 6.47 µM
- GI50 (UACC-62 melanoma): 1.81 µM
- TGI (UACC-62 melanoma): 11 µM
- GI50 ([…]-0 renal): 1.63 µM
- TGI (786-0 renal): 3.37 µM
- GI50 (HCC-2998 colon): 2.73 µM
- TGI (HCC-2998 colon): 5.41 µM
- GI50 (NCI-H322M lung): 4.48 µM
- TGI (NCI-H322M lung): > 100 µM
- GI50 (CCRF-CEM leukemia): < 0.01 µM
- GI50 (CAKI-1 renal): 3.6 µM
- TGI (CAKI-1 renal): > 100 µM
- GI50 (NCI-H522 lung): 2.29 µM
- TGI (NCI-H522 lung): > 100 µM
- GI50 (SNB-19 CNS): 3.34 µM
- TGI (SNB-19 CNS): 92.7 µM
- GI50 (HS 578T breast): 2.23 µM
- TGI (HS 578T breast): 4.38 µM
- GI50 (M14 melanoma): 2.42 µM
- TGI (M14 melanoma): 11.4 µM
- GI50 (ACHN renal): 2.73 µM
- TGI (ACHN renal): 16.8 µM
- GI50 (IGROV1 ovarian): 4.81 µM
- TGI (IGROV1 ovarian): > 100 µM
- GI50 (HCT-15 colon): 2.67 µM
- TGI (HCT-15 colon): 8.83 µM
- GI50 (UO-31 renal): 4.2 µM
- TGI (UO-31 renal): 68.1 µM
- GI50 (DU-145 prostate): 3.11 µM
- TGI (DU-145 prostate): 12.9 µM
- GI50 (OVCAR-8 ovarian): 2.3 µM
- TGI (OVCAR-8 ovarian): 9.75 µM
- GI50 (MDA-MB-468 breast): < 0.01 µM
- TGI (MDA-MB-468 breast): 0.07 µM
- GI50 (U251 glioblastoma): 2.34 µM
- TGI (U251 glioblastoma): 6.9 µM
- GI50 (MDA-MB-435 melanoma): 4.64 µM
- TGI (MDA-MB-435 melanoma): 17.4 µM
- GI50 (SK-OV-3 ovarian): 3.29 µM
- TGI (SK-OV-3 ovarian): 33.5 µM
- GI50 (HOP-62 NSCLC): 1.07 µM
- TGI (HOP-62 NSCLC): 3.32 µM
- GI50 (PC-3 prostate): 3.28 µM
- TGI (PC-3 prostate): 11 µM
- GI50 (OVCAR-5 ovarian): 4.13 µM
- TGI (OVCAR-5 ovarian): 64.5 µM
- GI50 (A498 renal): 2.33 µM
- TGI (A498 renal): 6.32 µM
- GI50 (MCF7 breast): 1.64 µM
- TGI (MCF7 breast): 3.31 µM
- GI50 (RPMI-8226 leukemia): 0.156 µM
- TGI (RPMI-8226 leukemia): 3.4 µM
- GI50 (SN12C renal): 3.57 µM
- TGI (SN12C renal): 52.9 µM
- GI50 (BT-549 breast): 1.68 µM
- TGI (BT-549 breast): 3.22 µM
- GI50 (MDA-MB-231 breast): 3.05 µM
- TGI (MDA-MB-231 breast): 10.4 µM
- GI50 (K-562 leukemia): 0.219 µM
- TGI (K-562 leukemia): 0.896 µM
- GI50 (SW-620 colon): 2.62 µM
- TGI (SW-620 colon): 11.9 µM
